# In patent US11634424B2 (priority 2019, dated 2023):
# Several values for one entry are separate records, joined by “and”; a condition that tells them apart may be missing. Equal entries are not always repeated. Where two headings read alike, the source gives them in different places.
# Columns and labels:
# Chk1 = Chk1 (Homo sapiens (Human), UniProt O14757); experiment: biochemical; format: biochemical; conditions: read-out: Chk1 inhibition IC50
# Procedure: The compounds of the present disclosure used in the experiments were self-prepared, and their chemical names and structural formulas were shown in the preparation embodiments of each compound. The determination mixture containing embodiment compounds of the present disclosure and Chk1 and Chk2 kinases were incubated in a microtiter plate, and CHK1 inhibitor activity of compounds were tested by monitoring the phosphorylation of Chk1 and Chk2 kinases on a synthetic peptide substrate with a specific amino acid sequence ([…], SEQ ID NO: 1). The test was carried out on the KinaseProfiler™ protein kinase activity detection platform of Eurofins, and the experimental results were provided by the company. The procedure was as follows: Chk1 and Chk2 kinases were diluted with 20 mM MOPS (morpholinpropane sulfonic acid), 1 mM EDTA (ethylenediaminetetraacetic acid), 0.04% Brij-35, 5% glycerol, 0.1% 2-mercaptoethanol, 1 mg/mL BSA (bovine serum albumin) and added to the reaction system, and the reaction system contained the embodiment compounds, 8 mM MOPS pH 7.0, 0.2 mM EDTA, […] polypeptide substrate ([…], SEQ ID NO: 1), 10 mM magnesium acetate and a certain concentration of [γ-33P]-ATP (the strength was about 500 cpm/pmol). A mixture solution of Mg^2′ and ATP (adenosine triphosphate) was added to initiate the reaction and the reaction solution was incubated at room temperature for 40 min. 0.5% Phosphate buffer was added to terminate the reaction. 10 μL of the reaction solution was filtered four times on a continuous filter P30, washed three times with […], and once with methanol, each wash for 4 min. The value was read with scintillation counting method after drying.
# Chk2 = Chk2 (Homo sapiens (Human), UniProt O96017); experiment: Chk2 kinase activity test, Eurofins KinaseProfiler, [γ-33P]-ATP peptide substrate phosphorylation; format: biochemical
# Chk2, sequence (O96017 whole entry): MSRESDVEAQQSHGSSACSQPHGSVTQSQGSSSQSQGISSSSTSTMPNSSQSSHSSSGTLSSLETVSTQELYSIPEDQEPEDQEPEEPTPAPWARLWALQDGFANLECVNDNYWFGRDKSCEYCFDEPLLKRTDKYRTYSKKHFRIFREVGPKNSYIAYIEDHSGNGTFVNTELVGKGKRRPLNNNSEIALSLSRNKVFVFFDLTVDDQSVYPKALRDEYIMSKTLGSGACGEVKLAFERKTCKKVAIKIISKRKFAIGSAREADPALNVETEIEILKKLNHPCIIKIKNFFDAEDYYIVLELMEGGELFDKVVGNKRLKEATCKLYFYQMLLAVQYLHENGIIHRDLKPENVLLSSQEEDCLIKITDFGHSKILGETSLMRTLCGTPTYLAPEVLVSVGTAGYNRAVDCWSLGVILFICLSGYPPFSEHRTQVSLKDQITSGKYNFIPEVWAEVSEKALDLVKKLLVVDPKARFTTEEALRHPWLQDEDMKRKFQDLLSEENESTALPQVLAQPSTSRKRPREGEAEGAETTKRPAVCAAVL
# Procedure: The compounds of the present disclosure used in the experiments were self-prepared, and their chemical names and structural formulas were shown in the preparation embodiments of each compound. […] The test was carried out on the KinaseProfiler™ protein kinase activity detection platform of Eurofins, and the experimental results were provided by the company. […] A mixture solution of Mg^2′ and ATP (adenosine triphosphate) was added to initiate the reaction and the reaction solution was incubated at room temperature for 40 min. 0.5% Phosphate buffer was added to terminate the reaction. […] The value was read with scintillation counting method after drying.
# [1] = Pharmacokinetic evaluation of compounds in mice; format: in vivo; conditions: mouse, plasma, female C57BL/6 mice; for bioavailability: oral, gavage 10 mg/kg vs intravenous 1 mg/kg, read-out: F (bioavailability); for AUC(0-t): 0 to 24 h; for Cmax: route not given (gavage group 10 mg/kg); for half-life: read-out: Intravenous injection T1/2 (converted)
# [2] = test system: human ovarian cancer OVCAR-3 subcutaneous xenograft tumor; experiment: In vivo pharmacodynamics, human ovarian cancer OVCAR-3 subcutaneous xenograft tumor BALB/c nude mouse model; parameters: species or system BALB/c nude mice; conditions: oral twice a day, Compound 18 75 mg/kg, Compound 19 25 mg/kg; for Tumor volume (D 21): D 21, mean ± SEM, n = 6
# Procedure: Experimental purpose: To evaluate the in vivo efficacy of the compounds of the present disclosure in the human ovarian cancer OVCAR-3 subcutaneous xenograft tumor BALB/c nude mouse model.
# Experimental animal: Female BALB/c nude mice, 6-8 weeks old, weighing 18-22 grams; supplier: Beijing Vital River Laboratory Animal Technology Co., Ltd. Experimental methods and steps:
# Human ovarian cancer OVCAR-3 (ATCC-HTB-161) cells were cultured in vitro in monolayer, and the culture conditions were RPMI1640 culture medium with 20% fetal bovine serum, 0.01 mg/mL bovine insulin, and 1% double antibody, and the cells were incubated at 37° C., 5% CO2 incubator. Routine digestion with trypsin was performed twice a week for passage. When the cell saturation was 80%-90% and the number reached the requirement, the cells were harvested, counted and inoculated.
# 0.1 mL (10×10^6 cells) of OVCAR-3 cells were subcutaneously inoculated into the right back of each mouse, and the mice were administrated in groups when the average tumor volume reached 122 mm^3.
# Compound 18, compound 19 were formulated as 2 mg/mL clear solutions with 10% dimethyl sulfoxide-20% polyethylene glycol 400-5% Tween 80-65% water.
# Tumor diameters were measured with vernier calipers twice a week. The calculation formula of tumor volume was. V=0.5a×b^2, where a and b represented the long and short diameters of the tumor, respectively.
# The antitumor efficacy of the compounds was evaluated by TGI (%). TGI (%), reflecting tumor growth inhibition rate. TGI (%/c)=[(1-(average tumor volume at the end of administration of a certain treatment group-average tumor volume at the beginning of administration of this treatment group)/(average tumor volume at the end of treatment in the solvent control group-average tumor volume at the beginning of administration of this solvent control group)]×100%. The relative tumor volume (RTV) was calculated according to the results of tumor measurement, and the calculation formula was RTV=Vt/V0, where V0 was measured at the time of group administration (i.e., D0), and Vt was the average tumor volume at the time of one measurement.
# Statistical analysis was performed using SPSS software based on RTV data at the end of the test. The Ttest was used for the comparison between two groups, and the one-way ANOVA was used for the comparison between three or more groups. If the variance was homogeneous (no significant difference in F value), Tukey's method was used for analysis; if the variance was not homogeneous (significant difference in F value), Games-Howell method was used for test. p<0.05 was considered that a significant difference was performed.
# [3] = po, gavage 10 mg/kg, read-out: Oral AUC0-last
# [4] = intravenous injection 1 mg/kg, read-out: Intravenous Injection AUC0-last
# Chk1, sequence (O14757 whole entry): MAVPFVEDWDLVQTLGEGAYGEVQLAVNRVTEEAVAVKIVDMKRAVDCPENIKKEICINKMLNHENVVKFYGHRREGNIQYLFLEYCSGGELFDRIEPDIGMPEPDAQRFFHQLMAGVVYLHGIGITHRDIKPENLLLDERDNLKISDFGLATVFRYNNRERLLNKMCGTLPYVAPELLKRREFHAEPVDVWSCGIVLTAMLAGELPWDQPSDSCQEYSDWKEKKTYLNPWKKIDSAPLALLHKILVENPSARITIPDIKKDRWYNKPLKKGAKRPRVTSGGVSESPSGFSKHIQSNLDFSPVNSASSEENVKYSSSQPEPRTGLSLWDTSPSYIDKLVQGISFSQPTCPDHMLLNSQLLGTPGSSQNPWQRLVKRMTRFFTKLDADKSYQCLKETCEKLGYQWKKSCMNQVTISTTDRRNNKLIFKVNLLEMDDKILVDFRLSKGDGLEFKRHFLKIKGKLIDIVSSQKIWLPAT
compound,measurement,setting,value
COc1ccccc1-c1cc(Nc2cnc3ccn(C4CCNCC4)c3n2)n[nH]1 [Compound 10],IC50,Chk1,2 nM
same,IC50,Chk2; read-out: Chk2 inhibition IC50,62 nM
[2H]C([2H])([2H])Oc1nc(C)ccc1-c1cc(Nc2cnc3ccn(C4CCN(C([2H])([2H])[2H])CC4)c3n2)n[nH]1 [Compound 22],IC50,Chk1,1 nM
same,IC50,Chk2,386 nM
COc1nc(C(F)(F)F)ccc1-c1cc(Nc2cnc3ccn(C4CCNCC4)c3n2)n[nH]1 [Compound 9],IC50,Chk1,2 nM
same,IC50,Chk2; read-out: Chk2 inhibition IC50,1010 nM
[2H]C([2H])([2H])N1CCC(n2ccc3ncc(Nc4cc(-c5ccc(C)nc5OC)[nH]n4)nc32)CC1 [Compound 21],IC50,Chk1,1 nM
same,IC50,Chk2,362 nM
COc1ccc(F)cc1-c1cc(Nc2cnc3ccn(C4CCNCC4)c3n2)n[nH]1 [Compound 8],IC50,Chk1,1 nM
same,IC50,Chk2; read-out: Chk2 inhibition IC50,188 nM
COc1nc(C)ccc1-c1cc(Nc2cnc3c(F)cn(C4CCN(C)CC4)c3n2)n[nH]1 [Compound 19],bioavailability,[1],39.1%
same,AUC(0-t),[1]; [3],3.91 µM·h
same,Cmax,[1]; po,1220 nM
same,Vd,[1]; intravenous injection 1 mg/kg,2.4 L/kg
same,clearance,[1]; intravenous injection 1 mg/kg,33.1 mL/min/kg
same,AUC(0-t),[1]; [4],1.15 µM·h
same,half-life,[1]; intravenous injection 1 mg/kg,1.1 h
same,Tumor volume (D 21),[2],131 mm^3 and 131 ± 12 mm^3
same,RTV (D 21),[2],1.14
same,TGI (%) (D 21),[2],98.8% and 98.76%
COc1cc(C)ccc1-c1cc(Nc2cnc3ccn(C4CCNCC4)c3n2)n[nH]1 [Compound 13],IC50,Chk1,2 nM
same,IC50,Chk2; read-out: Chk2 inhibition IC50,84 nM
COc1nc(C)ccc1-c1cc(Nc2cnc3c(F)cn(C4CCNCC4)c3n2)n[nH]1 [Compound 2],IC50,Chk1,2 nM
COc1cc(Cl)ccc1-c1cc(Nc2cnc3ccn(C4CCNCC4)c3n2)n[nH]1 [Compound 14],IC50,Chk1,1 nM
same,IC50,Chk2; read-out: Chk2 inhibition IC50,73 nM
COc1nc(C)ccc1-c1cc(Nc2cnc3ccn(C4CCNCC4)c3n2)n[nH]1 [Compound 1],IC50,Chk1,< 1 nM
COc1cc(F)ccc1-c1cc(Nc2cnc3ccn(C4CCNCC4)c3n2)n[nH]1 [Compound 12],IC50,Chk1,1 nM
same,IC50,Chk2; read-out: Chk2 inhibition IC50,32 nM
COc1nc(C)ccc1-c1cc(Nc2cnc3ccn(CC4CNC4)c3n2)n[nH]1 [Compound 4],IC50,Chk1,3 nM
same,IC50,Chk2; read-out: Chk2 inhibition IC50,333 nM
COc1nc(C)ccc1-c1cc(Nc2cnc3ccn(C[C@H]4CCNC4)c3n2)n[nH]1 [Compound 5],IC50,Chk1,3 nM
same,IC50,Chk2; read-out: Chk2 inhibition IC50,375 nM
Fc1cccc(OC(F)(F)F)c1-c1cc(Nc2cnc3ccn(C4CCNCC4)c3n2)n[nH]1 [Compound 11],IC50,Chk1,3 nM
same,IC50,Chk2; read-out: Chk2 inhibition IC50,99 nM
[2H]c1cn(C2CCNCC2)c2nc(Nc3cc(-c4ccc(C)nc4OC)[nH]n3)cnc12 [Compound 6],IC50,Chk1,< 1 nM
same,IC50,Chk2,64 nM
[2H]C([2H])([2H])Oc1nc(C)ccc1-c1cc(Nc2cnc3c(F)cn(C4CCN(C)CC4)c3n2)n[nH]1 [Compound 20],IC50,Chk1,2 nM
same,IC50,Chk2,282 nM
same,bioavailability,[1],41.9%
same,AUC(0-t),[1]; [3],5.13 µM·h
same,Cmax,[1]; po,1260 nM
same,Vd,[1]; intravenous injection 1 mg/kg,2.7 L/kg
same,clearance,[1]; intravenous injection 1 mg/kg,30.9 mL/min/kg
same,AUC(0-t),[1]; [4],1.21 µM·h
same,half-life,[1]; intravenous injection 1 mg/kg,1.4 h
COc1nc(C)ccc1-c1cc(Nc2cnc3ccn(C4CCN(C)CC4)c3n2)n[nH]1 [Compound 18],bioavailability,[1],33.2%
same,AUC(0-t),[1]; [3],3.63 µM·h
same,Cmax,[1]; po,1220 nM
same,Vd,[1]; intravenous injection 1 mg/kg,1.9 L/kg
same,clearance,[1]; intravenous injection 1 mg/kg,35.3 mL/min/kg
same,AUC(0-t),[1]; [4],1.14 µM·h
same,half-life,[1]; intravenous injection 1 mg/kg,0.9 h
same,Tumor volume (D 21),[2],180 ± 16 mm^3
same,Tumor volume (D 21),[2]; listed as compound 18,180 mm^3
same,RTV (D 21),[2],1.49
same,TGI (%) (D 21),[2],92.34%
same,TGI (%) (D 21),[2]; listed as compound 18,92.3%
